Laboratory results taken from ChEMBL document CHEMBL1130772, “New nonsteroidal androgen receptor modulators based on 4-(trifluoromethyl)-2(1H)-pyrrolidino[3,2-g] quinolinone” (Bioorg Med Chem Lett, 1998).

Columns and labels:
[1] = target: Estrogen receptor (Homo sapiens, UniProt Q92731+P03372); test: Antagonistic activity against Estrogen receptor in co-transfected CV-1 cell; format: functional, cell-based
[2] = target: T1, Mineralocorticoid receptor (Homo sapiens) (UniProt P08235); test: (§1) Antagonistic activity against hMR in co-transfected CV-1 cell; format: functional, cell-based
T1 sequence (whole entry): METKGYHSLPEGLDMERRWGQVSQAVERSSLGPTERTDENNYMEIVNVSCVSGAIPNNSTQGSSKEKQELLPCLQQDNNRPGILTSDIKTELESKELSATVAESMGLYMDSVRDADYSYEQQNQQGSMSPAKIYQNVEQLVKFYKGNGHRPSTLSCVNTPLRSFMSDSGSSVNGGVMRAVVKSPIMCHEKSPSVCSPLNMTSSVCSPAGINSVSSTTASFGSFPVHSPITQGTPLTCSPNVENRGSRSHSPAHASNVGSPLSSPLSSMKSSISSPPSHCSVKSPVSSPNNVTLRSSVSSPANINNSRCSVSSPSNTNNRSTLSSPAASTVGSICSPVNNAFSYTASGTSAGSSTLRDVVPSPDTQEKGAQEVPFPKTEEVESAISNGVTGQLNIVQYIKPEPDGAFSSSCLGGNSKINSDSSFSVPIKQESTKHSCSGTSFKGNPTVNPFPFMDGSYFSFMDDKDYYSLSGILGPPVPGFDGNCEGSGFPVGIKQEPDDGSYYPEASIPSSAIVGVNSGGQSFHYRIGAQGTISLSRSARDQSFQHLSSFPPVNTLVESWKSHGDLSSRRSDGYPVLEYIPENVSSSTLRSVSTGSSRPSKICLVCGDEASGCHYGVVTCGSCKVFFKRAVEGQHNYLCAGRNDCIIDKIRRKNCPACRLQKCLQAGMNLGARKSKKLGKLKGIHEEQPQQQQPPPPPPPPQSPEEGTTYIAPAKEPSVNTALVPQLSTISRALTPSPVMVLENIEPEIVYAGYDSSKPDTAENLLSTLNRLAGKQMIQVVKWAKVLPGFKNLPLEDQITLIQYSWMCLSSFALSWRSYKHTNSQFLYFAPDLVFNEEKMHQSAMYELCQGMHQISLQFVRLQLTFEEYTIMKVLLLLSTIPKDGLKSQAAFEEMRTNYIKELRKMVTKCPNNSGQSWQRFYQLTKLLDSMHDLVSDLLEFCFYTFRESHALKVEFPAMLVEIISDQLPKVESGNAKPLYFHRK

[3] = target: T2, Mineralocorticoid receptor (Homo sapiens, UniProt P08235); test: as §1; format: functional, cell-based
T2 sequence (P08235 whole entry): T1 sequence (whole entry)

[4] = target: T3, Progesterone receptor (Homo sapiens, UniProt P06401); test: Antagonistic activity against hPR in co-transfected CV-1 cell; format: functional, cell-based
T3 sequence (P06401 whole entry): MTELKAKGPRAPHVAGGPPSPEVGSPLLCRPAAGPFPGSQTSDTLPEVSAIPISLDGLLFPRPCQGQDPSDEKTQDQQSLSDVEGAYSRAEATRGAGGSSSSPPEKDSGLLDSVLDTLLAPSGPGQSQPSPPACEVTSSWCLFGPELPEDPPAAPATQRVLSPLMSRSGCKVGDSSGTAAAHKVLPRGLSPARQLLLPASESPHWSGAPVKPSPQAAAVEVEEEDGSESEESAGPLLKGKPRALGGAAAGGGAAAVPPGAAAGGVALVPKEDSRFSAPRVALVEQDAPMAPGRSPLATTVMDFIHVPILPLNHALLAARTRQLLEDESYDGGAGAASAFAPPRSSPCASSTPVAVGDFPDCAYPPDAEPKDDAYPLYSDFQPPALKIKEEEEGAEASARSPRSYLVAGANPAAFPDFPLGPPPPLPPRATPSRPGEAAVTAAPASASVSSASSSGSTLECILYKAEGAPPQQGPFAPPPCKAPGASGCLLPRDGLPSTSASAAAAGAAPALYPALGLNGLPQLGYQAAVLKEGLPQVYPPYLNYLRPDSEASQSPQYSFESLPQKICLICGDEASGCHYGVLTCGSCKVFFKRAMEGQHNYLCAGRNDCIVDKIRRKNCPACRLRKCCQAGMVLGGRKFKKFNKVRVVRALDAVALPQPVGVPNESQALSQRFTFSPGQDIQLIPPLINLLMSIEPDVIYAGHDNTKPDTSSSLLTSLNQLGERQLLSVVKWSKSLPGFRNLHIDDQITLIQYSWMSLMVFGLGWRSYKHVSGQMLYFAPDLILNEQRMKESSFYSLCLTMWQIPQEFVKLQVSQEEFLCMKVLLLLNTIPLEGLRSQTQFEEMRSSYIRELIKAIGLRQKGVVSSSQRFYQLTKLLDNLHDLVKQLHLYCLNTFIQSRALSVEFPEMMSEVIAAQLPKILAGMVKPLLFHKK

[5] = target: T4, Androgen receptor (Homo sapiens, UniProt P10275)
T4 sequence (P10275 whole entry): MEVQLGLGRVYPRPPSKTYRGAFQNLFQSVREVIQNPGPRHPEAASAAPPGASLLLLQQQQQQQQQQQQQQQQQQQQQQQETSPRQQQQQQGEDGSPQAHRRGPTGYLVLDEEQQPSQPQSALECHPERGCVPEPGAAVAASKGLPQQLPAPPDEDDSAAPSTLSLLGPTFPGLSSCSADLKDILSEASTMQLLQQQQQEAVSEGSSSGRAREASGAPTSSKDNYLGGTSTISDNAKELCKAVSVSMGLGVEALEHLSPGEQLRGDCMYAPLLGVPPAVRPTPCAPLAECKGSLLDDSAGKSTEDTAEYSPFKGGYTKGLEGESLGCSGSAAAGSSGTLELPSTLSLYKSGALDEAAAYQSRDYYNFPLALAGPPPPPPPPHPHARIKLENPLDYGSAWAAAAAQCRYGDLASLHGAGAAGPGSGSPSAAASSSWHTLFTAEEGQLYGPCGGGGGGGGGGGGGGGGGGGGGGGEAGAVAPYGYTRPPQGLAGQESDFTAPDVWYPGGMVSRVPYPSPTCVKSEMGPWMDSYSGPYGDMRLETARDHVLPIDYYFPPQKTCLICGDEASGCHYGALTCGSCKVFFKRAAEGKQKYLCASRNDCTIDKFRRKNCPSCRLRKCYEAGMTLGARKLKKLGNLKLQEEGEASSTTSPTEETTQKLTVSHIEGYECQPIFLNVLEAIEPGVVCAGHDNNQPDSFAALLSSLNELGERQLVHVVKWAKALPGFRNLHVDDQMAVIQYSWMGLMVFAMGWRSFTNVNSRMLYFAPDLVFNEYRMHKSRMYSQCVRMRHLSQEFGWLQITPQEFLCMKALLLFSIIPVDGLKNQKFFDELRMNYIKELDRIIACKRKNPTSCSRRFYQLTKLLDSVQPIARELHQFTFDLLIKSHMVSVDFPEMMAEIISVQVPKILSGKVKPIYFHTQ
Description: Antagonistic activity (IC50) against human androgen receptor (hAR) in co-transfected CV-1 cell

Structure (SMILES) | IC50 [1] [nM] | Efficacy [2] [%] | IC50 [3] [nM] | IC50 [4] [nM] | IC50 [5] [nM]
C[C@H]1CC[C@H]2Nc3cc4c(cc3[C@H]2C1)c(C(F)(F)F)cc(=O)n4C | > 10000 | < 20 | > 10000 | 380 | 48
CC1(C)CCC[C@]2(C)c3cc4c(C(F)(F)F)cc(O)nc4cc3N[C@H]12 | > 10000 | 77 | 570 | 430 | 51
CN1c2cc3c(cc2[C@H]2CCCC[C@H]21)c(C(F)(F)F)cc(=O)n3C | > 10000 | < 20 | > 10000 | 1000 | 36
